Test system: 126254-015-R-J1-PDC complex spheroid growth, % test/control
Experiment: Anticancer human tumor 126254-015-R-J1-PDC patient-derived soft tissue sarcoma cell line growth inhibition [Asc]
Conditions: for IC50: curve of first compound; for viability, T/C: stronger effect = lower value; active = viability on the fitted dose curve at most 10% of control; inactive = the rest
Procedure, shortened: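 Tumor cells were grown as multicellular spheroids with stromal HUVEC and mesenchymal stem cells and treated singly or in combination. Concentrations fell in half-log steps from the clinical Cmax, or from 10 microM where none was known.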

[1] = second compound 0.1 µM, first compound 0.0316 µM
[2] = second compound 0.1 µM, first compound 0.1 µM
[3] = second compound 0.1 µM, first compound 0.316 µM
[4] = second compound 0.1 µM, first compound 1 µM
[5] = second compound 0.316 µM, first compound 0.0316 µM
[6] = second compound 0.316 µM, first compound 0.1 µM
[7] = second compound 0.316 µM, first compound 0.316 µM
[8] = second compound 0.316 µM, first compound 1 µM
[9] = second compound 1 µM, first compound 0.0316 µM
[10] = second compound 1 µM, first compound 0.1 µM
[11] = second compound 1 µM, first compound 0.316 µM
[12] = second compound 1 µM, first compound 1 µM
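Also: spheroids exposed to compound for seven days.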
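For viability, T/C in this document: 100% = DMSO vehicle control wells.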

CCN1CCN(Cc2ccc(Nc3ncc(F)c(-c4cc(F)c5nc(C)n(C(C)C)c5c4)n3)nc2)CC1 + CNC(C)C(=O)NC1CN(S(=O)(=O)c2cccc(S(=O)(=O)N3CCC4CCC(C(=O)NC(c5ccccc5)c5ccccc5)N4C(=O)C(NC(=O)C(C)NC)C3)c2)CCC2CCC(C(=O)NC(c3ccccc3)c3ccccc3)N2C1=O
inactive: viability, T/C (second compound 0.01 µM, first compound 0.00316 µM) 94.4% | viability, T/C (second compound 0.01 µM, first compound 0.01 µM) 96.4% | viability, T/C (second compound 0.01 µM, first compound 0.0316 µM) 91.5% | viability, T/C (second compound 0.01 µM, first compound 0.1 µM) 82.5% | viability, T/C (second compound 0.01 µM, first compound 0.316 µM) 97% | viability, T/C (second compound 0.01 µM, first compound 1 µM) 91.6% | viability, T/C (second compound 0.0316 µM, first compound 0.00316 µM) 71% | viability, T/C (second compound 0.0316 µM, first compound 0.01 µM) 74.4% | viability, T/C (second compound 0.0316 µM, first compound 0.0316 µM) 77.8% | viability, T/C (second compound 0.0316 µM, first compound 0.1 µM) 80.1% | viability, T/C (second compound 0.0316 µM, first compound 0.316 µM) 81.7% | viability, T/C (second compound 0.0316 µM, first compound 1 µM) 77.6% | viability, T/C (second compound 0.1 µM, first compound 0.00316 µM) 61.4% | viability, T/C (second compound 0.1 µM, first compound 0.01 µM) 68.7% | viability, T/C [1] 62.9% | viability, T/C [2] 69% | viability, T/C [3] 75.9% | viability, T/C [4] 79.6% | viability, T/C (second compound 0.316 µM, first compound 0.00316 µM) 57.8% | viability, T/C (second compound 0.316 µM, first compound 0.01 µM) 62.5% | viability, T/C [5] 62.4% | viability, T/C [6] 67.4% | viability, T/C [7] 65.6% | viability, T/C [8] 71.8% | viability, T/C (second compound 1 µM, first compound 0.00316 µM) 59.2% | viability, T/C (second compound 1 µM, first compound 0.01 µM) 61.5% | viability, T/C [9] 65% | viability, T/C [10] 52.6% | viability, T/C [11] 57.2% | viability, T/C [12] 60.9%
> 1 µM: IC50 (second compound 0.01 µM) | IC50 (second compound 0.0316 µM) | IC50 (second compound 0.1 µM) | IC50 (second compound 0.316 µM) | IC50 (second compound 1 µM)

O=C(c1cc(Cc2n[nH]c(=O)c3ccccc23)ccc1F)N1CCN(C(=O)C2CC2)CC1 + Cc1c(S(C)(=O)=O)c(-c2cc(F)cc(N3CCN(c4ccc(NS(=O)(=O)c5ccc(NC(CCN6CCC(C(=O)OCCCP(=O)(O)O)CC6)CSc6ccccc6)c(S(=O)(=O)C(F)(F)F)c5)cc4)CC3)c2)c(-c2ccc(Cl)cc2)n1C(C)C
inactive: viability, T/C [1] 77.8% | viability, T/C [2] 81.8% | viability, T/C [3] 80% | viability, T/C [4] 71.8% | viability, T/C (second compound 0.1 µM, first compound 3.16 µM) 66.8% | viability, T/C (second compound 0.1 µM, first compound 10 µM) 56.2% | viability, T/C [5] 87.3% | viability, T/C [6] 79.3% | viability, T/C [7] 80.2% | viability, T/C [8] 67.6% | viability, T/C (second compound 0.316 µM, first compound 3.16 µM) 73.9% | viability, T/C (second compound 0.316 µM, first compound 10 µM) 47.8% | viability, T/C [9] 77% | viability, T/C [10] 72.8% | viability, T/C [11] 65.7% | viability, T/C [12] 71.3% | viability, T/C (second compound 1 µM, first compound 3.16 µM) 58.1% | viability, T/C (second compound 1 µM, first compound 10 µM) 45.8% | viability, T/C (second compound 3.16 µM, first compound 0.0316 µM) 75% | viability, T/C (second compound 3.16 µM, first compound 0.1 µM) 68.7% | viability, T/C (second compound 3.16 µM, first compound 0.316 µM) 74.5% | viability, T/C (second compound 3.16 µM, first compound 1 µM) 65.5% | viability, T/C (second compound 3.16 µM, first compound 3.16 µM) 59.2% | viability, T/C (second compound 3.16 µM, first compound 10 µM) 41.8% | viability, T/C (second compound 10 µM, first compound 0.0316 µM) 75.9% | viability, T/C (second compound 10 µM, first compound 0.1 µM) 80.5% | viability, T/C (second compound 10 µM, first compound 0.316 µM) 72.1% | viability, T/C (second compound 10 µM, first compound 1 µM) 70.6% | viability, T/C (second compound 10 µM, first compound 3.16 µM) 60.6% | viability, T/C (second compound 10 µM, first compound 10 µM) 55.3%
9.75 µM: IC50 (second compound 0.316 µM)
5.75 µM: IC50 (second compound 3.16 µM)
7.04 µM: IC50 (second compound 1 µM)
> 10 µM: IC50 (second compound 0.1 µM) | IC50 (second compound 10 µM)
